Drawing on PubChem BioAssay AID849 (SRMLSC, 2007), this text covers IC50 for 101 compounds.

Active and inactive are the calls of the source. How the calls were made is not given here.

This experiment deals with Saccharomyces cerevisiae lifespan shortening, growth inhibition. Description: yeast lifespan shortening compounds, dose response (AID 849).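 Further: yeast growth read as optical density after two days at 30 degrees C.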
As for `O=C1NC(=S)N(c2ccccc2F)C(=O)/C1=C\c1cccs1`, the IC50 is 18.6 µM.

With `Oc1c(Cl)cc(Cl)c(Cl)c1Cc1c(O)c(Cl)cc(Cl)c1Cl`, the IC50 was > 100 µM (inactive).

As for `Cc1cc(C(=O)COC(=O)c2ccc[nH]c2=O)c(C)n1-c1ccc(Br)cc1`, the IC50 is > 100 µM (inactive).

As to `O=[N+]([O-])c1ccccc1-c1cc(-c2cc(Cl)ccc2O)n[nH]1`, the IC50 is > 100 µM (inactive).

Consider `N/C(Cc1ccc(Cl)cc1)=N\OC(=O)C1CCCCC1`, for which the IC50 was 11.5 µM.

With `Cc1ccc(-n2c(Cl)c(Cl)nc(Cl)c2=O)cc1`, the IC50 is 14.6 µM.

For `Cc1cc([N+](=O)[O-])ccc1-c1ccc(C2Nc3ccccc3C(=O)N2O)o1` (stereo unspecified), the IC50 is > 100 µM (inactive).

As to `COc1ccc(Br)cc1C1CC(=O)N2CN(C)CSC2=C1C#N` (stereo unspecified), the IC50 was > 100 µM (inactive).

Consider `O=C(CCCSc1ccccc1)Nc1nc(-c2ccccn2)cs1`, for which the half-maximal inhibitory concentration (IC50) is 50.5 µM.

Take `Cc1ccccc1NC(=S)c1nc2ccccc2[nH]1`: the IC50 was 29.5 µM.

Take `O=C(O)c1cc2ccc3ccccc3c2oc1=O`: the half-maximal inhibitory concentration (IC50) was 20.6 µM.

Regarding `COc1ccc(OC)c(CCNC(=O)Cn2sc3nc(C)cc(C)c3c2=O)c1`, the IC50 is > 100 µM (inactive).

`CCCC(=O)NC(c1cccs1)c1cc([N+](=O)[O-])c2cccnc2c1O` (stereo unspecified): the IC50 was 16.6 µM.

`CCOc1ccc(/C=C/[N+](=O)[O-])c2ccccc12`: the IC50 was > 100 µM (inactive).

Consider `C=CCSc1nnc2nc3c(nn12)c1cc(C)ccc1n3CC=C`, for which the IC50 is > 100 µM (inactive).

For `O=S(=O)(/N=C(\Sc1ccc(Cl)cc1)c1ccccc1)c1ccccc1`, the 50% inhibitory concentration (IC50) is 49.2 µM.

With `Cc1cc2c(cc(C(=O)O)n2C)s1`, the IC50 was 36.5 µM.

As for `Cc1cccc(OCCn2cc(/C=N/NC(=O)c3ccncc3)c3ccccc32)c1`, the IC50 was > 100 µM (inactive).

Turning to `CCOC(=O)C(=NCCCN(C)C)NNc1ccc(Br)cc1`, the IC50 was 11.1 µM.

For the compound `O=C(c1ccc(Cl)cc1)c1c[nH]c(C(=O)C(Cl)(Cl)Cl)c1`, the IC50 was 37.8 µM.

Turning to `CCc1cc2c(=O)[nH]c(-c3ccccn3)nc2s1`, the IC50 was 19.2 µM.

With `O=S(=O)(Nc1ccc(-n2cccc2)cc1)c1ccc(Cl)cc1Cl`, the IC50 was > 100 µM (inactive).

Regarding `O=[N+]([O-])c1ccc(O)c2ncccc12`, the IC50 is 0.575 µM.

Consider `CCCCCC/C(C)=C1/SC(=S)NC1=O`, for which the IC50 is > 100 µM (inactive).

Turning to `Cc1cccc(C(=O)O/N=C/c2c(N3CCOCC3)n(C)c3ccccc23)c1`, the IC50 is 35.3 µM.

On to `Oc1c(Br)cc(Br)cc1C=Nc1ccc2c(c1)OCO2`, for which the IC50 was > 100 µM (inactive).

With `Cc1ccc(C(=O)CSC2=NC(N)=C(C#N)C3(CCCCC3)C2C(N)=O)cc1` (stereo unspecified), the IC50 is > 100 µM (inactive).

With `c1ccc(-c2csc3nnc(SCc4ccc5c(c4)OCO5)n23)cc1`, the IC50 is > 100 µM (inactive).

As to `Clc1ccc2[nH]c3c(c2c1)CCc1cn[nH]c1-3`, the IC50 is 12.5 µM.

For `Cc1ccc(N/N=C/c2c(O)cc(C)oc2=O)cc1`, the IC50 is 24.3 µM.

For `CCOC(=O)CSc1nnc(CSc2nc(N)c3c(C)c(C)sc3n2)n1-c1ccccc1`, the IC50 was > 100 µM (inactive).

For `COc1ccccc1N1CCN(Cc2cc(Br)c(O)c3ncccc23)CC1`, the half-inhibitory concentration (IC50) is 15.8 µM.

On to `N/C(Cc1ccc(Cl)c(Cl)c1)=N\OC(=O)c1cccs1`, for which the IC50 is > 100 µM (inactive).

On to `CCOc1cccc(-c2nnc3n2N=C(c2cc(OC)ccc2OC)CS3)c1`, for which the IC50 was > 100 µM (inactive).

On to `O=C(Nc1cc(C(F)(F)F)ccc1Cl)C(Sc1cccc[n+]1[O-])c1ccccc1` (stereo unspecified), for which the IC50 is 4.89 µM.

Turning to `Cc1cc(OCc2ccc(C(=O)NN=C3CCCC3)cc2)ccc1Cl`, the concentration for half-maximal inhibition (IC50) was 43.6 µM.

In the case of `O=c1c2sc(-c3ccccc3)cc2nc2n1CCC2`, the IC50 is 13.8 µM.

On to `Cc1ccc2nc(-c3ccc(NS(=O)(=O)c4ccc(F)c(F)c4)cc3)sc2c1`, for which the IC50 was > 100 µM (inactive).

With `CC(=O)Oc1ccc(N2C(=O)C3C(C2=O)C2(C)C=CC3(C)O2)cc1` (stereo unspecified), the IC50 was > 100 µM (inactive).

For the compound `Cc1cccc(C(=O)Oc2csc(=S)n2C(=O)c2cccc(C)c2)c1`, the IC50 is > 100 µM (inactive).

As for `COc1ccc2c(c1)[nH]c1c(Cl)ncnc12`, the half-maximal inhibitory concentration (IC50) is 29.9 µM.

Regarding `CCn1c(=O)c(C(=O)Nn2c(C)nc3ccccc3c2=O)c(O)c2ccccc21`, the IC50 was 15.5 µM.

In the case of `Cc1csc(NC(=O)Cc2coc3cc(C)c(C(C)C)cc23)n1`, the IC50 was > 100 µM (inactive).

For `C=C(C)COc1ccc(-c2[nH]ncc2Oc2ccccc2OC)c(O)c1`, the IC50 was > 100 µM (inactive).

In the case of `O=C(/C(=C/O)N=Nc1ccccc1)c1ccncc1`, the IC50 was 14.5 µM.

Turning to `Cc1ncc(CC(=O)n2cc(C(=O)c3cc(Cl)ccc3O)cn2)s1`, the IC50 was 12 µM.

Consider `COc1cc(/C=C2\C(=O)ON=C2c2ccccc2)cc(OC)c1OC`, for which the IC50 was 18.5 µM.

`O=[N+]([O-])c1cccc(/C=N/n2cnnc2)c1O`: the IC50 was 19.7 µM.

With `O=C(Cc1ccccc1)NCCc1cn2ccsc2n1`, the IC50 is > 100 µM (inactive).

Take `NC(=O)c1ccc(N=Cc2ccc([N+](=O)[O-])s2)cc1`: the concentration for half-maximal inhibition (IC50) was 7.91 µM.

Consider `Cc1cc(=O)[nH]c(-n2nc(C)cc2C)n1`, for which the IC50 is 14.3 µM.

On to `O=C1ON=C(c2ccccc2)/C1=C/c1ccc(OS(=O)(=O)c2ccccc2)cc1`, for which the IC50 is 18.9 µM.

Consider `O=c1cnn([C@@H]2O[C@H](CO)[C@@H](O)[C@H]2O)c(=O)[nH]1`, for which the IC50 was 13.7 µM.

In the case of `Oc1ccc2ccccc2c1N=Nc1ccccn1`, the IC50 was 35.2 µM.

For the compound `Cc1cc(C)c2c(N=NN3CCOCC3)[nH]nc2n1`, the 50% inhibitory concentration (IC50) was 19.9 µM.

For the compound `CN(c1ccccc1)c1ccc(/C=C/[N+](=O)[O-])cc1`, the IC50 is 49.2 µM.

Take `O=C(NNC(=S)NC(=O)C12CC3CC(CC(C3)C1)C2)c1ccncc1`: the IC50 was 19.6 µM.

On to `Clc1ccc(CSC(Cn2ccnc2)c2ccc(Cl)cc2Cl)cc1` (stereo unspecified), for which the IC50 is 0.528 µM.

In the case of `COc1ccccc1OCCN1CSC(=S)N(C)C1`, the IC50 is 11.8 µM.

Regarding `Cc1ccc(-c2cc(-c3ccccc3C)[nH]n2)c(O)c1`, the IC50 is 15.8 µM.

With `CCCCCCOC(=O)Sc1nc2ccccc2o1`, the IC50 is 20.2 µM.

Regarding `O=C(CN1CCN(c2ncc(C(F)(F)F)cc2Cl)CC1)NCCNc1ncc(C(F)(F)F)cc1Cl`, the IC50 was 42.5 µM.

Consider `CC(C)CC(=O)/C(=C\c1ccc(Cl)cc1Cl)n1cncn1`, for which the IC50 is 15.8 µM.

Take `CN(O)/C=c1/ccc2c(n1)C(=O)C=CC=2`: the IC50 was 8.11 µM.

For the compound `CCCC1COC(Cn2cncn2)(c2ccc(Cl)cc2Cl)O1` (stereo unspecified), the IC50 is 0.274 µM.

For the compound `C/C(=N\Nc1ccc([N+](=O)[O-])cc1)c1ccc(N)cc1`, the IC50 was 40.2 µM.

For the compound `CC1=CC(=O)c2ccccc2C1=O`, the IC50 was 18.5 µM.

With `C=CCn1c(C)cc(C(=O)CSc2nnc(NCc3ccccc3)s2)c1C`, the IC50 is > 100 µM (inactive).

Take `CC(C)(C)c1ccc(NC(=O)COC(=O)c2ccc([N+](=O)[O-])s2)cc1`: the IC50 is 34 µM.

As for `c1ccc(-c2ccc(-c3ccccn3)nn2)nc1`, the IC50 is 49.3 µM.

Turning to `CCCCc1oc2ccccc2c1C(=O)c1cc(I)c(OCCN(CC)CC)c(I)c1`, the IC50 was 7.79 µM.

Take `CCCCOC(=O)Sc1nc2ccccc2o1`: the IC50 was 16 µM.

For `COc1ccc2c(C)nc(Nc3nc(C)c(C)c(=O)[nH]3)nc2c1`, the IC50 is 15 µM.

Regarding `C/C(=N\Nc1nc2c(s1)CCCC2)c1ccccc1`, the IC50 was 31.9 µM.

For `COC(=O)Cn1c2ccccc2c2nc(C)sc21`, the IC50 was > 100 µM (inactive).

Consider `Cc1nc2c(c(C)c1C#N)C(=O)c1ccccc1-2`, for which the IC50 was 38.8 µM.

Consider `Cc1ccccc1OCCCN1C(=O)C(=O)c2cccc(C)c21`, for which the IC50 is > 100 µM (inactive).

On to `CCOC(=O)C1=Nc2ccccc2C1=[N+]=[N-]`, for which the IC50 was 5.58 µM.

Turning to `Cc1ccc(N/N=C/c2cccnc2)cc1`, the IC50 was 39.6 µM.

Regarding `Cc1ccc(OC(=S)Nc2ccc(O)cc2)cc1`, the IC50 is 14 µM.

As to `CSC1=NSC2=NC(=O)/C(=C\c3coc4ccccc4c3=O)C(=N)N12`, the IC50 was > 100 µM (inactive).

Turning to `O=[N+]([O-])c1ccc(N/N=C/c2ccc[nH]2)cc1`, the IC50 was > 100 µM (inactive).

Turning to `CCc1cccc2c(C(=O)COC(=O)c3ccc([N+](=O)[O-])s3)c[nH]c12`, the IC50 was 29.2 µM.

For the compound `O=[N+]([O-])c1ccc(C2Oc3ccccc3C3CC(c4ccccc4)=NN32)s1` (stereo unspecified), the IC50 is > 100 µM (inactive).

Regarding `O=C(CSCc1ccco1)Nc1cc(C(F)(F)F)ccc1N1CCOCC1`, the IC50 was > 100 µM (inactive).

On to `O=C(Oc1c(Cl)cc(Cl)c2cccnc12)c1cccs1`, for which the concentration for half-maximal inhibition (IC50) is 11.1 µM.

With `C/C(=N\Nc1ccc(Cl)c(Cl)c1)c1ccc(-n2ccnc2)cc1`, the concentration for half-maximal inhibition (IC50) was 30.1 µM.

Take `Cc1nnc(C)n1/N=C/c1cc(Br)cc(Br)c1O`: the IC50 was 9.23 µM.

Consider `O=Nc1c(O)n(Cc2ccc(Cl)c(Cl)c2)c2ccccc12`, for which the IC50 was > 100 µM (inactive).

Turning to `Cn1c2ccccc2c(=O)n2c(=O)c3ccccc3cc12`, the IC50 is 52.5 µM.

In the case of `OC(CNCC1CCCO1)Cn1c2ccc(Br)cc2c2cc(Br)ccc21` (stereo unspecified), the IC50 was > 100 µM (inactive).

As to `CC1=NOC(=O)/C1=C\c1ccc(-c2ccc(Cl)cc2Cl)o1`, the IC50 is > 100 µM (inactive).

On to `COc1ccc2nc(/N=C(\N)NC(=O)Nc3ccccc3)nc(C)c2c1`, for which the half-inhibitory concentration (IC50) is 50.4 µM.

`CNC(=S)N/N=C(\C)c1ccc(N2CCOCC2)cc1`: the IC50 was > 100 µM (inactive).

Turning to `CCOCC(=O)Nc1nc2c(s1)C(=O)CC(C)(C)C2`, the IC50 is > 100 µM (inactive).

For `Oc1ccc(/C=N/N=C(c2ccccc2)c2ccccc2)c(O)c1O`, the IC50 was 23.7 µM.

With `Cc1ccc2c(c1)-c1nc3ccccc3cc1C2=NC1CCCCC1`, the 50% inhibitory concentration (IC50) was 35.6 µM.

Take `Cc1ccc(/C=C2\C(=O)NC(=S)N(c3ccccc3F)C2=O)s1`: the half-inhibitory concentration (IC50) is 13.9 µM.

For `S=C1SCN(Cc2ccccn2)CN1Cc1ccco1`, the IC50 is 21.3 µM.

Turning to `C=CCC1c2cccc(C(=O)O)c2C(=O)N1c1cccc(C)c1` (stereo unspecified), the IC50 was 2.79 µM.

`CCCCSc1nc(C)c(C(C)=O)cc1C#N`: the IC50 is > 100 µM (inactive).
